Results reported in patent publication US8158575B2, “Agent for the prevention and treatment of sexually transmitted diseases-I” (priority 2001, dated 2012).
Values joined by “and” are separate entries in the source; they are usually repeats but may differ in a detail not shown here. Equal entries are not always repeated.

Legend:
[1] = target: T1, cell-to-cell fusion mediated by HIV-1 Env and CD4 (Human immunodeficiency virus type 1 group M subtype B, UniProt P04578); format: cell-based; settings: TC50/IC50
T1 construct: expressed in transfected cells; host or cells: HeLa CD4 LTR beta-gal cells (CD4) co-cultured with HL2/3 cells (HIV-1 Env)
Experimental: (§1) The fusion assay assesses the ability of compounds to block cell-to-cell fusion mediated by HIV-1 Env and CD4 expressed on separate cells. This assay is sensitive to inhibitors of both the gp120/CD4 interaction and inhibitors of the X4 coreceptor. First, 5×10^3 HeLa CD4 LTR […]-gal cells are placed in microtiter wells and incubated overnight. The following day the media is removed and the HeLa CD4 LTR […]-gal cells are incubated for 1 h at 37° C. in fresh media with test compound. Following the incubation 5×10^3 HL2/3 cells are added and the incubation continued for 40 to 48 h. At 40 to 48 h […]-galactosidase enzyme expression is detected by chemiluminescence (Tropix Gal-screen™, Tropix, Bedford, Mass.). Compound toxicity is monitored on a sister plate using XTT dye reduction.

[2] = system: HeLa CD4 LTR […]-gal cells; test: XTT toxicity on sister plate of the fusion assay; format: cell-based; settings: XTT, sister plate
Experimental: as §1

[3] = system: HeLa CD4 LTR […]-gal cells; test: XTT toxicity on sister plate of the attachment assay; format: cell-based; settings: XTT, sister plate
Experimental: This assay is designed to detect compounds that interact with the cell and block virus attachment, and/or compounds which interact with the forming attachment/fusion complex. The attachment assay is performed with HeLa CD4 LTR […]-gal cells. HeLa CD4 LTR […]-gal cells are routinely cultured with the required selection antibiotics. Twenty-four h prior to initiation of the assay the cells are trypsinized, counted and 1×10^4 cells placed in a 0.2 cm well in media without selection antibiotics. At 24 h media is removed and compound in media placed on the cells and incubated for 15 min at 37° C. A known titer of the IIIB strain of HIV is then added to the wells and the incubation continued for 1 h. At the end of the incubation the wells are washed 3 times with media and the culture continued for 40 to 48 h. At termination of the assay, media is removed and […]-galactosidase enzyme expression determined by chemiluminescence per manufacturers instructions (Tropix Gal-screen™, Bedford Mass.) by a single step chemiluminescent method using a single solution to lyse the cells and detect […]-galactosidase enzyme activity. Compound toxicity is monitored on a sister plate by XTT dye reduction. […] The virus adsorption interval of 1 h is sufficiently short that AZT, which requires phosphorylation to its active tri-phosphate form (AZT-TTP), is not active in this assay.

[4] = system: GHOST(3) X4/R5 cell line; test: XTT cell viability in the CD4-dependent transmission assay; format: cell-based, human
Experimental: The […] is carried out essentially as described for the CD4-independent transmission assay except for the use of the CD4 positive GHOST(3) X4/R5 cell line. This cell line is derived from the HOS (human osteosarcoma) cell line that is negative for HIV coreceptor and CD4 expression. The cell line is engineered to express T4 (CD4), R5 and X4 via non-selectable retroviral vectors and an HIV-2 LTR hGFP construct with a hygromycin selectable marker. The cell lines are handled and cultured as described above for the CD4-independent HIV inhibition assay, with the exception that 2.5×10^4 GHOST(3) X4/R5 and 5×10^2 mitomycin C treated H9/SK-1 cells are used in the assay. Addition of compounds, mitomycin C treatment and post-transmission washing to remove the H9/SK-1 cells are performed as described above to allow comparability of the two antiviral assays. Virus replication is assessed at 24 h post infection, following 3 washes, by measurement of cell-associated p24 by ELISA to ensure a single round of infection in the presence of CD4. Compound toxicity and cell viability are assessed by XTT dye reduction.

[5] = system: ME180 cells; test: XTT cell viability in the CD4-independent transmission assay
Experimental: ME180 cells, a CD4 negative, X4 positive cervical epithelial cell line is maintained in RPMI 1640 supplemented with 10% fetal bovine serum, glutamine and antibiotics. Twenty-four h prior to the assay ME180 cells are trypsonized, washed and seeded in 96-well flat bottom microtiter plates at a density of 2×10^3 cells per well. On the day of the assay, H9 cells chronically infected with the SK1 clinical isolate of HIV-1 (H9-SK1) are treated with freshly made mitomycin C (200 μg/ml) for 60 minutes at 37° C. This concentration of mitomycin C is sufficient to result in cell death, but allows virus transmission to occur. After mitomycin C treatment the H9-SK1 cells are washed three times with tissue culture medium. Test compounds are added to the ME180 monolayer followed by 2×10^4 H9-SK1 cells. The ME180 cells are co-cultured with H9-SK-1 cells and test material for 4 h, and the H9-SK1 cells are removed by washing the ME180 monolayer three times with PBS. At 24 and 48 h post assay initiation the wells are again washed three times with PBS to ensure removal of the H9-SK1 cells, and culture continued in test material free media. At six days post-co-cultivation, supernatants are collected and evaluated for p24 antigen expression by ELISA. Cell viability is assessed by XTT dye reduction. […] Testing in the presence of mucin is carried out by addition of 200 µg/ml of porcine mucin (Sigma Chemical Co., St Louis, Mo.) to the transmission reactions. Transmission intervals and washing without replacement of mucin or compound are carried as described above. All determinations are performed in triplicate with serial ½ Log10 dilution of the test materials.
TC50 values for the test materials are derived by measuring the reduction of the tetrazolium dye XTT (2,3-bis(2-methoxy-4-nitro-5-sulfophenyl)-5-[(phenylamino)carbonyl]-2H-tetrazolium hydroxide) in replicate microtiter plates containing cell and compound without virus. […] XTT solution is prepared daily as a stock of 1 mg/mL in PBS. Phenazine methosulfate (PMS) solution is prepared at 15 mg/mL in PBS and stored in the dark at −20° C. XTT/PMS stock is prepared immediately before use by diluting the PMS 1:100 into PBS and adding 40 µl per mL of XTT solution. Fifty microliters of XTT/PMS are added to each well of the plate and the plate incubated for 4 h at 37° C. The 4 h incubation has been empirically determined to be within the linear response range for […] dye reduction with the indicated numbers of cells for each assay. Adhesive plate sealers are used in place of the lids, the sealed plate is inverted several times to mix the soluble formazan product and the plate is read at 450 nm with a Molecular Devices Vmax 96 well plate format spectrophotometer.
Dextran sulfate (positive) and dextran (negative) are used as controls for the CD4-dependent and CD4-independent HIV transmission inhibition assays. […] Commercially available Penicillin (10,000 U/ml) Streptomycin (10.0 mg/ml) solution is used as a positive control for the Lactobacillus sensitivity assay.

[6] = system: HIV-1 RoJo; test: PBMC antiviral assay (RT activity); format: cell-based; settings: 6 days, AZT control, read-out: HIV-1 RoJo Infected PBMCs IC50
Experimental: (§2) Human immunodeficiency virus type 1 (HIV-1) strain RoJo is a low passage pediatric isolate derived in the laboratories of Southern Research Institute (SRI). The SHIV89.6pd was obtained from Mark Lewis at SRI and stocks grown in human PBMCs for antiviral testing.
(§3) Peripheral blood monocular cells (PBMCs) were obtained from normal hepatitis and HIV-1 negative donors by ficoll hypaque gradient separation. Briefly, anti-coagulated blood was diluted 1:1 with Dulbecco's phosphate buffered saline without Ca^++ and Mg^++ (PBS) and layered over 14 mL of Lymphocyte separation media in a 50 ml centrifuge tube. Tubes were then centrifuged for 30 minutes at 600×g. […] The mononuclear cells were counted, viability determined by Trypan Blue dye exclusion and resuspended in RPMI 1640 medium supplemented with 15% FBS (heat inactivated), 2 mM L-glutamine, 100 U/mL penicillin, 100 µg/mL streptomycin, and 10 µg/mL gentamycin with 2 µg/mL phytohemagluttin (PHA) at 1×10^6 cells/mL. […]
(§4) Human peripheral blood mononuclear cells from a minimum of 2 donors, that have been blasted with PHA and IL-2, were counted, viability determined by Trypan Blue dye exclusion and mixed in equal ratios. […] The assay was incubated for 6 days in a humidified atmosphere at 37° C., 5% CO2, after which supernatants were collected, for analysis of RT activity and sister plates analyzed for cell viability by MTS dye reduction. […]

[7] = system: SHIV 89.6pd; test: PBMC antiviral assay (RT activity); format: cell-based; settings: 6 days, AZT control, read-out: SHIV 89.6pd Infected PBMCs IC50
Experimental: as §2, §3, §4

[8] = system: PBMCs; test: MTS cell viability in PBMC assay; format: cell-based, human; settings: AZT control
Description: Human peripheral blood mononuclear cells from a minimum of 2 donors, that have been blasted with PHA and IL-2, were counted, viability determined by Trypan Blue dye exclusion and mixed in equal ratios. Pooled donors were used to minimize the variability observed between individual donors which results from quantitative and qualitative differences in HIV infection and overall response to the PHA and IL-2 of primary lymphocyte populations. The cells were resuspended at 1×10^6 cells/mL in RPMI 1640 without phenol red supplemented with 15% Fetal Bovine Serum (heat inactivated), 2 mM L-glutamine, 100 U/mL penicillin, 100 μg/mL streptomycin, 10 μg/mL gentamycin and IL-2 (20 U/mL, R&D Systems, Minneapolis, Minn.). Fifty microliters of cells were then distributed to the inner 60 wells of a 96 well round bottom microtiter culture plate in a standard format developed by the Infectious Disease Research department of Southern Research Institute. Each plate contains cell control wells (cells only), virus control wells (cells plus virus), and experimental wells (drug plus cells plus virus). Serially diluted compounds are added to the microtiter plate followed by the appropriate pre-titered strain of HIV-1 or SHIV-1. All samples were assayed in triplicate with a replicate plate without virus for the determination of compound toxicity. The final volume per well was 200 µL. The assay was incubated for 6 days in a humidified atmosphere at 37° C., 5% CO2, after which supernatants were collected, for analysis of RT activity and sister plates analyzed for cell viability by MTS dye reduction. Wells were also examined microscopically and any abnormalities noted.
At assay termination the assay plates were stained with the soluble tetrazolium-based dye MTS (CellTiter® Reagent Promega, Madison, Wis.) to determined cell viability and quantify compound toxicity. […] At termination of the PBMC assay 20 µL of MTS reagent was added per well, and the wells are incubated for 4 h at 37° C.
AZT has been used as a relevant positive control compound for the individual assays.

Compound	Fusion Assay TI [1]	Fusion Assay TC50 [2] [µg/mL]	Attachment Assay TC50 [3] [µg/mL]	CD4-Dependent Transmission Assay TC50 ([4]; Exp. 1, without mucin) [µg/mL]	CD4-Dependent Transmission Assay TC50 ([4]; Exp. 2, with mucin) [µg/mL]	CD4-Dependent Transmission Assay TC50 ([4]; Exp. 2, without mucin) [µg/mL]	CD4-Independent Transmission Assay TC50 ([5]; Exp. 2, with mucin) [µg/mL]	CD4-Independent Transmission Assay TC50 ([5]; Exp. 2, without mucin) [µg/mL]	IC50 [6] [nM]	IC50 [7] [nM]	HIV-1 RoJo Infected PBMCs TC50 ([8]; plate of the HIV-1 RoJo test) [nM]	SHIV 89.6pd Infected PBMCs TC50 ([8]; plate of the SHIV 89.6pd test) [nM]
COc1cc(-c2ccc(/N=N/c3ccc4c(S(=O)(=O)O)cc(S(=O)(=O)O)c(N)c4c3O)c(OC)c2)ccc1/N=N/c1ccc2c(S(=O)(=O)O)cc(S(=O)(=O)O)c(N)c2c1O [Chicago Sky Blue, reference compound]	>12 and >16	>10	>10	–	–	–	–	–	–	–	–	–
Dextran sulfate	–	–	–	>100	>50	>50	>50	>50	–	–	–	–
dextran	–	–	–	>100	>100	>100	>100	>100	–	–	–	–
Cc1cn([C@H]2C[C@H](N=[N+]=[N-])[C@@H](CO)O2)c(=O)[nH]c1=O [AZT, reference compound]	–	–	–	–	–	–	–	–	5	2	>1000	>1000
